Test results published in patent publication US20260347364A1, “PYRAZOLO[4,3-F]QUINAZOLINE DERIVATIVES AS MODULATORS OF G12D MUTANT KRAS USEFUL FOR THE TREATMENT OF CANCER” (JAZZ PHARMACEUTICALS IRELAND LTD., priority 2023, published 2026).

Assays:
KRAS G12D = target: T1, KRAS G12D (Homo sapiens, UniProt P01116, G12D); experiment: HTRF nucleotide exchange assay, KRAS G12D; type: biochemical; conditions: class symbols; for IC50: HTRF nucleotide exchange assay (NEA)
T1 construct: aa1-188 KRAS WT, HRAS WT, NRAS WT, or KRAS containing the G12D

KRAS WT = target: T2, KRAS WT (Homo sapiens, UniProt P01116); experiment: HTRF nucleotide exchange assay, KRAS WT; type: biochemical; conditions: class symbols; for IC50: HTRF nucleotide exchange assay (NEA)
T2 construct: aa1-188 KRAS WT

IC50 (KRAS G12D) [µM] | IC50 (KRAS WT) [µM] | KRAS^WT NEA (KRAS WT) | KRAS^G12D NEA (KRAS G12D) | Compound
≤ 0.01 | 0.1 to 10 | – | – | CCc1c(F)ccc2cc(O)cc(-c3cc4nc(OC[C@@]56CCCN5C[C@H](F)C6)nc(N5CCCn6nc(C(=O)N(C)C)cc6C5)c4c4cn(CC(F)(F)F)nc34)c12 [Example 78, 5-[4-(8-ethyl-7-fluoro-3-hydroxy-1-naphthyl)-7-[[(2R,8S)-2-fluoro-1,2,3,5,6,7-hexahydropyrrolizin-8-yl]methoxy]-2-(2,2,2-trifluoroethyl)pyrazolo[4,3-f]quinazolin-9-yl]-N,N-dimethyl-4,6,7,8-tetrahydropyrazolo[1,5-a][1,4]diazepine-2-carboxamide]
0.01 to 0.1 | 0.01 to 0.1 | – | – | CCC1CCCc2cc(O)cc(-c3cc4nc(OC[C@@]56CCCN5C[C@H](F)C6)nc(N5CCCOCC5)c4c4cn(C)nc34)c21 (stereo partly drawn) [Example 66, 1-ethyl-8-[2-methyl-9-(1,4-oxazepan-4-yl)-7-[[(2R,8S)-2-fluoro-1,2,3,5,6,7-hexahydropyrrolizin-8-yl]methoxy]pyrazolo[4,3-f]quinazolin-4-yl]tetralin-6-ol]
≤ 0.01 | ≤ 0.01 | – | – | C#Cc1c(F)ccc2cc(O)cc(-c3cc4nc(OC[C@@]56CCCN5C[C@H](F)C6)nc(N5CCCCC(C)(O)C5)c4c4cn(C)nc34)c12 (some centres unmarked) [Example 43]
≤ 0.01 | ≤ 0.01 | – | – | CCc1c(F)ccc2cc(O)cc(-c3c(F)c4nc(OC[C@]5(C)CCCN5C)nc(N5CCOCC(C)(O)C5)c4c4cn(C)nc34)c12 (stereo partly drawn) [Example 161, 4-[4-(8-ethyl-7-fluoro-3-hydroxy-1-naphthyl)-5-fluoro-2-methyl-7-[[(2S)-1,2-dimethylpyrrolidin-2-yl]methoxy]pyrazolo[4,3-f]quinazolin-9-yl]-6-methyl-1,4-oxazepan-6-ol]
≤ 0.01 | 0.1 to 10 | – | – | CCc1c(F)ccc2cc(O)cc(-c3c(F)c4nc(OCC56COC(COC)(C5)C6)nc(N5CC6CCC(C5)N6)c4c4cn(C)nc34)c12 [Example 169, 4-[9-(3,8-diazabicyclo[3.2.1]octan-3-yl)-5-fluoro-7-[[1-(methoxymethyl)-2-oxabicyclo[2.1.1]hexan-4-yl]methoxy]-2-methyl-pyrazolo[4,3-f]quinazolin-4-yl]-5-ethyl-6-fluoro-naphthalen-2-ol]
≤ 0.01 | ≤ 0.01 | – | – | CCc1c(F)ccc2cc(O)cc(-c3c(C)c4nc(OCC5(CN(C)C)CC5)nc(N5CCC[C@@](C)(O)C5)c4c4cn(C)nc34)c12 [Example 204, (3R)-1-[7-[[1-[(dimethylamino)methyl]cyclopropyl]methoxy]-4-(8-ethyl-7-fluoro-3-hydroxy-1-naphthyl)-2,5-dimethyl-pyrazolo[4,3-f]quinazolin-9-yl]-3-methyl-piperidin-3-ol]
≤ 0.01 | ≤ 0.01 | – | – | CCc1c(F)ccc2cc(O)cc(-c3c(C)c4nc(OCC5(C)CC(O)CN5)nc(N5CCOCC(C)(O)C5)c4c4cn(C)nc34)c12 (centres unmarked) [Example 145, 4-[4-(8-ethyl-7-fluoro-3-hydroxy-1-naphthyl)-7-[(4-hydroxy-2-methyl-pyrrolidin-2-yl)methoxy]-2,5-dimethyl-pyrazolo[4,3-f]quinazolin-9-yl]-6-methyl-1,4-oxazepan-6-ol]
≤ 0.01 | ≤ 0.01 | – | – | CCc1c(F)ccc2cc(O)cc(-c3c(F)c4nc(OCC5(CN6CC[C@H](F)C6)CC5)nc(N5CCOCC(C)(O)C5)c4c4cn(C)nc34)c12 (stereo partly drawn) [Example 231, 4-[4-(8-ethyl-7-fluoro-3-hydroxy-1-naphthyl)-5-fluoro-2-methyl-7-[[1-[[(3S)-3-fluoropyrrolidin-1-yl]methyl]cyclopropyl]methoxy]pyrazolo[4,3-f]quinazolin-9-yl]-6-methyl-1,4-oxazepan-6-ol]
0.01 to 0.1 | 0.1 to 10 | – | – | CCc1c(F)ccc2cc(Cl)cc(-c3cc4nc(OC[C@@]56CCCN5C[C@H](F)C6)nc(N5CCCn6nc(C(=O)N(C)C)cc6C5)c4c4cn(C)nc34)c12 [Example 104, 5-[4-(3-chloro-8-ethyl-7-fluoro-1-naphthyl)-2-methyl-7-[[(2R,8S)-2-fluoro-1,2,3,5,6,7-hexahydropyrrolizin-8-yl]methoxy]pyrazolo[4,3-f]quinazolin-9-yl]-N,N-dimethyl-4,6,7,8-tetrahydropyrazolo[1,5-a][1,4]diazepine-2-carboxamide]
≤ 0.01 | ≤ 0.01 | – | – | CCc1c(F)ccc2cc(O)cc(-c3c(F)c4nc(OC[C@@]56CCCN5C[C@H](F)C6)nc(N5CCCC(C)(O)C5)c4c4cn(C)nc34)c12 (stereo partly drawn) [Example 100, (3R)-1-[4-bromo-5-fluoro-2-methyl-7-[[(2R,8S)-2-fluoro-1,2,3,5,6,7-hexahydropyrrolizin-8-yl]methoxy]pyrazolo[4,3-f]quinazolin-9-yl]-3-methyl-piperidin-3-ol]
0.1 to 10 | – | D (<49% inhibition at 10 μM) | – | CCc1c(F)ccc2cc(O)cc(-c3c(F)c4nc(OCC5(CN(C)CC(F)(F)F)CC5)nc(N5CCOCC(C)(O)C5)c4c4cn(C)nc34)c12 (centres unmarked) [Example 192, 4-[4-(8-ethyl-7-fluoro-3-hydroxy-1-naphthyl)-5-fluoro-2-methyl-7-[[1-[[methyl(2,2,2-trifluoroethyl)amino]methyl]cyclopropyl]methoxy]pyrazolo[4,3-f]quinazolin-9-yl]-6-methyl-1,4-oxazepan-6-ol]
0.1 to 10 | – | D (<49% inhibition at 10 μM) | – | C#Cc1c(F)ccc2cc(O)cc(-c3cc4nc(OC[C@@]56CCCN5C[C@H](F)C6)nc(N5CC6C(=O)NC(=O)C6C5)c4c4cn(C)nc34)c12 (some centres unmarked) [Example 37]
≤ 0.01 | ≤ 0.01 | – | – | CCc1c(F)ccc2cc(O)cc(-c3c(F)c4nc(OCC5(CN6CCC(OC)CC6)CC5)nc(N5CCOCC(C)(O)C5)c4c4cn(C)nc34)c12 (centres unmarked) [Example 187, 4-[4-(8-ethyl-7-fluoro-3-hydroxy-1-naphthyl)-5-fluoro-7-[[1-[(4-methoxy-1-piperidyl)methyl]cyclopropyl]methoxy]-2-methyl-pyrazolo[4,3-f]quinazolin-9-yl]-6-methyl-1,4-oxazepan-6-ol]
≤ 0.01 | 0.1 to 10 | – | – | CCc1c(F)ccc2cc(O)cc(-c3cc4nc(OC[C@@]56CCCN5C[C@H](F)C6)nc(N5C6CCC5CN(CCCO)C6)c4c4cn(C)nc34)c12 [Example 89, 5-ethyl-6-fluoro-4-[7-[[(2R,8S)-2-fluoro-1,2,3,5,6,7-hexahydropyrrolizin-8-yl]methoxy]-9-[3-(3-hydroxypropyl)-3,8-diazabicyclo[3.2.1]octan-8-yl]-2-methyl-pyrazolo[4,3-f]quinazolin-4-yl]naphthalen-2-ol]
≤ 0.01 | ≤ 0.01 | – | – | CCc1c(F)ccc2cc(O)cc(-c3c(F)c4nc(OCC5(CN6CC[C@H](O)C6)CC5)nc(N5CCOCC(C)(O)C5)c4c4cn(C)nc34)c12 (stereo partly drawn) [Example 190, 4-[4-(8-ethyl-7-fluoro-3-hydroxy-1-naphthyl)-5-fluoro-2-methyl-7-[[1-[[(3S)-3-hydroxypyrrolidin-1-yl]methyl]cyclopropyl]methoxy]pyrazolo[4,3-f]quinazolin-9-yl]-6-methyl-1,4-oxazepan-6-ol]
– | 0.1 to 10 | – | D (<49% inhibition at 10 μM) | CCc1c(F)ccc2cc(O)cc(-c3cc4nc(OC[C@@]56CCCN5C[C@H](F)C6)nc(N5CCCC(C)(O)CC5)c4c4cn(C)nc34)c12 (stereo partly drawn) [Example 29, 1-[4-(8-ethyl-7-fluoro-3-hydroxy-1-naphthyl)-7-[[(2R,8S)-2-fluoro-1,2,3,5,6,7-hexahydropyrrolizin-8-yl]methoxy]-2-methyl-pyrazolo[4,3-f]quinazolin-9-yl]-4-methyl-azepan-4-ol]
– | 0.1 to 10 | – | D (<49% inhibition at 10 μM) | CCc1c(F)ccc2cc(O)cc(-c3cc4nc(OC[C@@]56CCCN5C[C@H](F)C6)nc(N5CCCOCC5)c4c4cnn(C)c34)c12 [Example 46, 5-ethyl-6-fluoro-4-[3-methyl-9-(1,4-oxazepan-4-yl)-7-[[(2R,8S)-2-fluoro-1,2,3,5,6,7-hexahydropyrrolizin-8-yl]methoxy]pyrazolo[4,3-f]quinazolin-4-yl]naphthalen-2-ol]
≤ 0.01 | ≤ 0.01 | – | – | CCc1c(F)ccc2cc(O)cc(-c3c(F)c4nc(OCC5(CN(C)C)CCC5)nc(N5CCOCC(C)(O)C5)c4c4cn(C)nc34)c12 (centres unmarked) [Example 222, 4-[7-[[1-[(dimethylamino)methyl]cyclobutyl]methoxy]-4-(8-ethyl-7-fluoro-3-hydroxy-1-naphthyl)-5-fluoro-2-methyl-pyrazolo[4,3-f]quinazolin-9-yl]-6-methyl-1,4-oxazepan-6-ol]
– | – | D (<49% inhibition at 10 μM) | D (<49% inhibition at 10 μM) | CCc1c(F)ccc2cc(O)cc(-c3cc4nc(OCC5(CN6CCC[C@H]6C(F)(F)F)CC5)nc(N5CCCn6nc(C(=O)N(C)C)cc6C5)c4c4cn(C)nc34)c12 [Example 71]
≤ 0.01 | 0.1 to 10 | – | – | CCc1c(F)ccc2cc(O)cc(-c3c(C)c4nc(OCC5(C#N)CCOC5)nc(N5CC6CCC(C5)N6)c4c4cn(C)nc34)c12 (centres unmarked) [Example 241, 3-[[9-(3,8-diazabicyclo[3.2.1]octan-3-yl)-4-(8-ethyl-7-fluoro-3-hydroxy-1-naphthyl)-2,5-dimethyl-pyrazolo[4,3-f]quinazolin-7-yl]oxymethyl]tetrahydrofuran-3-carbonitrile]
≤ 0.01 | ≤ 0.01 | – | – | CCc1c(F)ccc2cc(O)cc(-c3c(F)c4nc(OC[C@@]5(CN(C)C)CC5(F)F)nc(N5CCOCC(C)(O)C5)c4c4cn(C)nc34)c12 (stereo partly drawn) [Example 236, 4-[4-(8-ethyl-7-fluoro-3-hydroxy-1-naphthyl)-5-fluoro-2-methyl-7-[[(1S)-1-[(dimethylamino)methyl]-2,2-difluoro-cyclopropyl]methoxy]pyrazolo[4,3-f]quinazolin-9-yl]-6-methyl-1,4-oxazepan-6-ol]
≤ 0.01 | ≤ 0.01 | – | – | CCc1c(F)ccc2cc(O)cc(-c3c(C)c4nc(OC[C@@]56CCCN5C[C@H](F)C6)nc(N5CC6CCC5CN6)c4c4cn(C)nc34)c12 (stereo partly drawn) [Example 216, 4-[9-(2,5-diazabicyclo[2.2.2]octan-2-yl)-2,5-dimethyl-7-[[(2R,8S)-2-fluoro-1,2,3,5,6,7-hexahydropyrrolizin-8-yl]methoxy]pyrazolo[4,3-f]quinazolin-4-yl]-5-ethyl-6-fluoro-naphthalen-2-ol]
